The results in this text go back to patent US12390437B2, “Itaconic acid derivatives and uses thereof intreating an inflammatory disease or a disease associated with an undesirable immune response” (Sitryx Therapeutics Limited, priority 2019, dated 2025).

One data set has as its system NRF2. In words: NRF2 +/-GSH activation assay (DiscoverX PathHunter NRF2 translocation kit, U2OS cells). The format is cell-based. The settings on record: for Emax: read-out: NRF2 activation Emax; for EC50: read-out: NRF2 activation EC50. The method, then: Measuring Compound Activation Effects on the Anti-Inflammatory Transcription Factor NRF2 in DiscoverX PathHunter NRF2 Translocation Kit
Potency and efficacy of compounds of formula (IW-1) against the target of interest to activate NRF2 (nuclear factor erythroid 2-related factor 2) were determined using the PathHunter NRF2 translocation kit (DiscoverX). The NRF2 translocation assay was run using an engineered recombinant cell line, utilising enzyme fragment complementation to determine activation of the Keap1-NRF2 protein complex and subsequent translocation of NRF2 into the nucleus. Enzyme activity was quantified using a chemiluminescent substrate consumed following the formation of a functional enzyme upon PK-tagged NRF2 translocation into the nucleus.
The assay was run under either +/−GSH (glutathione) conditions to determine the attenuating activities of GSH against target compounds.
Additionally, a defined concentration of dimethyl fumarate was used as the ‘High’ control to normalise test compound activation responses to.
U2OS PathHunter eXpress cells were thawed from frozen prior to plating. Following plating, U2OS cells were incubated for 24 hrs (37° C./5% CO2) in commercial kit provided cell medium.
Following 24 hrs of U2OS incubation, cells were directly treated with an appropriate final concentration of compound, for −GSH conditions, or for +GSH conditions, an intermediate plate containing 6× working concentrations of compound stocks was prepared in a 6 mM working concentration of GSH solution (solubilised in sterile PBS). Following a 30 minute compound-GSH pre-incubation (37° C./5% CO2) for +GSH treatment, plated U2OS cells were incubated with an appropriate final concentration of compound and GSH.
Following compound (+/−GSH) treatment, the U2OS plates were incubated for a further 6 hours (37° C./5% CO2) before detection reagent from the PathHunter NRF2 commercial kit was prepared and added to test plates according to the manufacturer's instructions. Subsequently, the luminescence signal detection in a microplate reader was measured (PHERAstar®, BMG Labtech).
Percentage activation was calculated by normalising the sample data to the high and low controls used within each plate (+/−DMF). Percentage activation/response was then plotted against compound concentration and the 50% activation concentration (EC50) was determined from the plotted concentration-response curve.

Data set [1] relates to IL-1β cytokine output from THP-1s. Kind of data set: THP-1 AlphaLISA IL-1β cytokine assay. The format is cell-based, human. The settings on record: read-out: IL-1β (IC50). The method, then:
Measuring Inhibitory Effects on IL-1β and IL-6 Cytokine Output from THP-1s
The cytokine inhibition profiles of compounds of formula (IW-1) were determined in a differentiated THP-1 cell assay. All assays were performed in RPMI-1640 growth medium (Gibco), supplemented with 10% fetal bovine serum (FBS; Gibco), 1% penicillin-streptomycin and 1% sodium pyruvate unless specified otherwise. The IL-1β and IL-6 cytokine inhibition assays were each run in a background of differentiated THP-1 cells as described below. All reagents described were from Sigma-Aldrich unless specified otherwise. Compounds were prepared as 10 mM DMSO stocks.
THP-1 cells were expanded as a suspension up to 80% confluence in appropriate growth medium. Cells were harvested, suspended, and treated with an appropriate concentration of phorbol 12-myristate 13-acetate (PMA) over a 72 hr period (37° C./5% CO2).
Following 72 hrs of THP-1 cell incubation, cellular medium was removed and replaced with fresh growth media containing 1% of FBS. Working concentrations of compounds were prepared separately in 10% FBS treated growth medium and pre-incubated with the cells for 30 minutes (37° C./5% CO2). Following the 30 minute compound pre-incubation, THP-1s were treated with an appropriate concentration of LPS and the THP-1s were subsequently incubated for a 24 hr period (37° C./5% CO2). An appropriate final concentration of Nigericin was then dispensed into the THP-1 plates and incubated for 1 hour (37° C./5% CO2) before THP-1 supernatants were harvested and collected in separate polypropylene 96-well holding plates.
Reagents from each of the IL-1β and IL-6 commercial kits (Perkin Elmer) were prepared and run according to the manufacturer's instructions. Subsequently, fluorescence signal detection in a microplate reader was measured (EnVision® Multilabel Reader, Perkin Elmer).
Percentage inhibition was calculated per cytokine by normalising the sample data to the high and low controls used within each plate (+/−LPS respectively). Percentage inhibition was then plotted against compound concentration and the 50% inhibitory concentration (IC50) was determined from the resultant concentration-response curve.
On the technique in general: In Alpha technology, singlet oxygen from a donor bead excites a nearby acceptor bead.

Data set [2] is described as follows: Mouse pharmacokinetic study, intravenous dosing. The format is in vivo. The settings on record: male, C57BL/6, mouse, iv, plasma, 10 mg/kg i.v., read-out: Parent compound concentration following intravenous administration. Here is the method:
(§1) Pharmacokinetic studies were carried out in 6-8-week-old male C57BL/6 mice having free access to food and water. Intravenous dosing was conducted at 10 mg/kg (5 mL/kg; vehicle: 10% DMSO-90% (25% HP-13-CD in water)) via tail vein injection, with sampling at 3 min, 8 min, 15 min, 30 min, 1, 2, 4, 6 and 8 hours, i.e., 9 time points in total (N=3/time point), using semi-serial bleeding for plasma. Oral compound administration, via gavage, was carried out at 100 mg/kg (10 mL/kg; vehicle: 5% DMSO-95% (0.5% HPMC+0.1% Tween 80 in water)), with sampling at 5 min, 15 min, 30 min, 1, 2, 4, 6, 8 and 24 hours, i.e., 9 time points in total (N=3/time point), using semi-serial bleeding for plasma.
(§2) For both intravenous and oral routes, the mice were restrained manually at the designated time points, with ca. 110 μL of blood being taken into K2EDTA tubes via the facial vein. Blood samples were put on ice and centrifuged to obtain plasma samples from which the concentration at each time point was measured by LC-MS/MS.

Data set [3] can be described thus: Mouse pharmacokinetic study, oral administration. The conditions noted are these: male, C57BL/6, mouse, plasma, po, 100 mg/kg, plasma, male C57BL/6 mice, oral gavage 100 mg/kg. Type of data set: in vivo. The method, then:
as §1, §2

Where [4] appears, read: Homo sapiens, U2OS, normalised to dimethyl fumarate 'High' control, GSH condition not stated in Table 5.
[5] abbreviates: Homo sapiens, U2OS PathHunter cells, 6 hours, GSH condition not stated in Table 5.
The mark [6] stands for this setting: Homo sapiens, THP-1, PMA-differentiated THP-1 cells, LPS 24 hr then Nigericin 1 hour.
[7] abbreviates: Homo sapiens, PMA-differentiated THP-1 cells, LPS 24 hr then Nigericin 1 hour.

Read-outs that look alike come from different tables or passages of the source. A value given as a limit tells only on which side of the number the result lay.

By Emax is commonly meant the maximal effect, on the per cent scale that the assay sets. For orientation: EC50 means the concentration giving half of the maximal effect. As usually defined, the IC50 is the concentration that inhibits the measured activity by half. Regarding `C=C(CC(=O)OC1CCCCCCC1)C(=O)OC1(CC(=O)OCC)COC1` [Example 137, 4-cyclooctyl 1-(3-(2-ethoxy-2-oxoethyl)oxetan-3-yl) 2-methylenesuccinate], the maximal effect (Emax) with NRF2 (setting [4]) was determined as 96%. In the data set on NRF2 (setting [5]), the EC50 was 4.2 µM. Also, the IC50 in data set [1] (setting [6]) is 5.7 µM.
As for `C=C(CC(=O)OC1CCCCCC1)C(=O)OCc1nn[nH]n1` [Example 162, 1-(2H-tetrazol-5-yl)methyl 4-cycloheptyl 2-methylenesuccinate], the Emax in the data set on NRF2 (setting [4]) was found to be 164%. Moreover, the EC50 with NRF2 (setting [5]) was 31.3 µM. Moreover, the half-maximal inhibitory concentration (IC50) in data set [1] (setting [6]) came to 14.7 µM.
For `C=C(CC(=O)O[C@H]1[C@@H]2CC[C@H]1CN(S(C)(=O)=O)C2)C(=O)O[C@H]1[C@@H]2CC[C@H]1CN(S(C)(=O)=O)C2` [Example 156, bis((endo)-3-(methylsulfonyl)-3-azabicyclo[3.2.1]octan-8-yl) 2-methylenesuccinate], in the data set with NRF2 (U2OS PathHunter cells, 6 hours, GSH condition not stated in Table 5), the EC50 stood at 47.9 µM. Also, in the data set on NRF2 (normalised to dimethyl fumarate 'High' control, GSH condition not stated in Table 5), the “NRF2 activation Emax” value was found to be 63%. The IC50 in data set [1] amounted to 27.9 µM.
For `C=C(CC(=O)OC1CCCCCC1)C(=O)OCC(=O)O` [Example 145, 2-(4-(cycloheptyloxy)-2-methylene-4-oxobutanoyloxy)acetic acid], the EC50 in the data set on NRF2 (Homo sapiens, U2OS, 6 h) was > 100 µM. For the same compound, the Emax with NRF2 (Homo sapiens, U2OS) stood at 7%. Also, in data set [1] (setting [7]), the IC50 was 19.3 µM.
On to `C=C(CC(=O)OCCCOc1ccccc1)C(=O)OCC(=O)O` [Example 95, 2-((2-methylene-4-oxo-4-(3-phenoxypropoxy)butanoyl)oxy)acetic acid], for which the maximal response (Emax) in the data set with NRF2 (setting [4]) turned out to be 122%. Further, the EC50 in the data set on NRF2 (setting [5]) turned out to be 36.5 µM. The IC50 in data set [1] (setting [6]) turned out to be 80.6 µM.
Turning to `C=C(CC(=O)OC1CC2(CCC2)C1)C(=O)OCc1nn[nH]n1` [Example 163, 1-(2H-tetrazol-5-yl)methyl 4-spiro[3.3]heptan-2-yl 2-methylenesuccinate], the Emax in the data set with NRF2 (setting [4]) was found to be 0%. In the data set with NRF2 (setting [5]), the EC50 is > 100 µM. Moreover, the IC50 in data set [1] (setting [6]) worked out at 23.9 µM.
Consider `C=C(CC(=O)OC12CC3CC(CC(C3)C1)C2)C(=O)OCC(=O)O` [Example 172, 2-((4-((-adamantan-1-yl)oxy)-2-methylene-4-oxobutanoyl)oxy)acetic Acid], for which, in data set [1] (setting [7]), the IC50 was determined as 23.8 µM. For the same compound, in data set [2], the concentration at 0.05 h was found to be 23700 ng/mL, the concentration at 0.133 h came out at 11300 ng/mL, the concentration at 0.25 h amounted to 2640 ng/mL and the concentration at 0.5 h was found to be 1210 ng/mL. In data set [2], the concentration at 1 h came to 75 ng/mL, the concentration at 2 h is 9.9 ng/mL, the concentration at 4 h turned out to be 6.1 ng/mL and the concentration at 6 h was < 4 ng/mL. The concentration at 8 h in data set [2] was < 4 ng/mL.
As to `C=C(CC(=O)OC(CCCC)CCCC)C(=O)OCC(=O)O` [Example 175, 2-((2-methylene-4-(nonan-5-yloxy)-4-oxobutanoyl)oxy)acetic acid], in data set [3] (0.083 h, read-out: Parent compound concentrations following oral administration, Time 0.083 h), the concentration at 0.083 h came out at 39100 ng/mL. Also, the concentration at 0.25 h in data set [3] (0.25 h, read-out: Parent compound concentrations following oral administration, Time 0.25 h) is 19500 ng/mL. Moreover, in data set [3] (0.5 h, read-out: Parent compound concentrations following oral administration, Time 0.5 h), the concentration at 0.5 h was determined as 18200 ng/mL. Also, the concentration at 1 h in data set [3] (1 h, read-out: Parent compound concentrations following oral administration, Time 1 h) worked out at 5520 ng/mL. Further, in data set [3] (2 h, read-out: Parent compound concentrations following oral administration, Time 2 h), the concentration at 2 h came out at 1410 ng/mL. The concentration at 4 h in data set [3] (4 h, read-out: Parent compound concentrations following oral administration, Time 4 h) was 2000 ng/mL. Besides, the concentration at 6 h in data set [3] (6 h, read-out: Parent compound concentrations following oral administration, Time 6 h) was found to be 784 ng/mL. In addition, the concentration at 8 h in data set [3] (8 h, read-out: Parent compound concentrations following oral administration, Time 8 h) came to 231 ng/mL. Moreover, the concentration at 24 h in data set [3] (24 h, read-out: Parent compound concentrations following oral administration, Time 24 h) was < 4 ng/mL. The IC50 in data set [1] (setting [6]) came to 7.6 µM. In addition, in data set [2], the concentration at 0.05 h turned out to be 27500 ng/mL, the concentration at 0.133 h was determined as 11700 ng/mL, the concentration at 0.25 h worked out at 6110 ng/mL and the concentration at 0.5 h stood at 1190 ng/mL. For the same compound, in data set [2], the concentration at 1 h came out at 181 ng/mL, the concentration at 2 h came to 32 ng/mL, the concentration at 4 h is < 4 ng/mL and the concentration at 6 h was < 4 ng/mL. Also, the concentration at 8 h in data set [2] was < 4 ng/mL.
